# Like-named read-outs stand apart in the source and are kept apart here.
# Legend:
# [1] = Exploratory toxicity study in mice; type: in vivo, CD-1 mice; settings: for reduction in neutrophil counts vs concurrent controls: 60 mg/kg/dose QOD
# Source text: Additional animals were included for TK evaluation.
# MS-1 hMCC xenograft = type: in vivo; settings: 5 mg/kg 5 on/2 off; Day 36 minus Day -3
# MKL-1 hMCC xenograft = type: in vivo; settings: 5 mg/kg 5 on/2 off
# [2] = Pharmacokinetics across species (statements covering several species); type: in vivo, mice, rats, dogs, and monkeys; settings: plasma; for half-life: intravenous; for bioavailability: po
# Protocol: Disparate half-lives were noted between rodents and non-rodents with values ranging from either 2 to 4 hours in rodents or from 12 to 20 hours in non-rodents.
# [3] = system: Salmonella typhimurium TA98 and TA100 strains; assay: Bacterial reverse mutation assay; type: cell-based; settings: up to 500 μg/mL, presence and absence of S9
# P-gp (human MDR1) = P-gp (human MDR1) (Homo sapiens (Human), UniProt P08183); assay: Permeability in MDR1-MDCK cells; type: in vitro ADME; settings: dog
# Sequence of P-gp (human MDR1) (P08183 whole entry): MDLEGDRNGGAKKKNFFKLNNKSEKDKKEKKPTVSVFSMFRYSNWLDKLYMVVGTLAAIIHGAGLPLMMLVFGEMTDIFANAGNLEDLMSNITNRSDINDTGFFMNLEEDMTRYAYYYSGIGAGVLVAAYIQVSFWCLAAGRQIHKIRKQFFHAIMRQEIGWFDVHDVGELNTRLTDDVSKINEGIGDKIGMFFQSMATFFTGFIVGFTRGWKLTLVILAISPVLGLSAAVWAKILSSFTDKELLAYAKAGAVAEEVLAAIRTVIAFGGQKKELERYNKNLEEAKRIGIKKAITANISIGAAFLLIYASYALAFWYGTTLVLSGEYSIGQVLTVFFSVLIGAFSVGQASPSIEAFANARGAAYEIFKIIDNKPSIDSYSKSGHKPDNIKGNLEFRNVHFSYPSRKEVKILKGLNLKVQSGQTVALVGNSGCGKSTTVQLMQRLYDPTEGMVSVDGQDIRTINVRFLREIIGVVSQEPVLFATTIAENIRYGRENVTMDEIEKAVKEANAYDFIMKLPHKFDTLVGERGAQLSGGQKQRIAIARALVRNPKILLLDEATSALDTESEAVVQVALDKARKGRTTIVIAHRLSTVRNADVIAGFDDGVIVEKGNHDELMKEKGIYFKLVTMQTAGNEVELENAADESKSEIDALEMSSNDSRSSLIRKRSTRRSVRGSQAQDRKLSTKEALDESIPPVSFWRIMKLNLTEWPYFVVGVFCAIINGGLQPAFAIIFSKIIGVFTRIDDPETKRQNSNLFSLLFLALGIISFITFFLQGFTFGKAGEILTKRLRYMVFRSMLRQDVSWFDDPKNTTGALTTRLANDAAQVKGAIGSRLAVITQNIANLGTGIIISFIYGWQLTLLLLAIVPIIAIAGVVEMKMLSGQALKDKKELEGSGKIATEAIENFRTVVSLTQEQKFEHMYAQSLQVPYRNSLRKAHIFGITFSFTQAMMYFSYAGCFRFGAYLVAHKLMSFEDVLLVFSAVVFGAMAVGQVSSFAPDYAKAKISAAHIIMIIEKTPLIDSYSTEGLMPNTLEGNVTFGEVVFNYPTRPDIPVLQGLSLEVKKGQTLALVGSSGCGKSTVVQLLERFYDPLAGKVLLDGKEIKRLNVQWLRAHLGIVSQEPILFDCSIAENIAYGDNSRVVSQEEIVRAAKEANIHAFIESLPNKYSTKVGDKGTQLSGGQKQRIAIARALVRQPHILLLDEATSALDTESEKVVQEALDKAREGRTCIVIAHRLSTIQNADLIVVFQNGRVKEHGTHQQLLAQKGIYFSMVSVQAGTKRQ
# [4] = molecular target: MDR1(human P-gp)-MDCK cells (Homo sapiens (Human), UniProt P08183); assay: Permeability in MDR1-MDCK cells; type: in vitro ADME
# Sequence of MDR1(human P-gp)-MDCK cells (P08183 whole entry): as above
# [5] = 4-week toxicity study (no recovery period) in dogs; settings: Q2W administration, not determined
# [6] = 4-week oral gavage pivotal toxicity study with 4-week recovery in dogs; type: in vivo, Beagle dogs
# [7] = Pharmacokinetics following IV and oral administration, mice; type: in vivo, CD-1 mice; settings: Mouse, Female, single oral dose 10 mg base/kg
# [8] = system: recombinant human CYP enzymes; assay: CYP reaction phenotyping with recombinant human CYP enzymes; type: in vitro ADME
# Source text: The role of non-CYP enzymes in the metabolism of Compound A is yet to be ascertained.
# [9] = dog, in vivo
# [10] = Excretion in bile duct cannulated rats; type: in vivo; settings: IV, 24-hour period post dosing
# CYP2C9 = CYP2C9 (Homo sapiens (Human), UniProt P11712); assay: CYP inhibition in pooled human liver microsomes, CYP2C9; type: in vitro ADME; settings: up to 50 μM
# Sequence of CYP2C9 (P11712 whole entry): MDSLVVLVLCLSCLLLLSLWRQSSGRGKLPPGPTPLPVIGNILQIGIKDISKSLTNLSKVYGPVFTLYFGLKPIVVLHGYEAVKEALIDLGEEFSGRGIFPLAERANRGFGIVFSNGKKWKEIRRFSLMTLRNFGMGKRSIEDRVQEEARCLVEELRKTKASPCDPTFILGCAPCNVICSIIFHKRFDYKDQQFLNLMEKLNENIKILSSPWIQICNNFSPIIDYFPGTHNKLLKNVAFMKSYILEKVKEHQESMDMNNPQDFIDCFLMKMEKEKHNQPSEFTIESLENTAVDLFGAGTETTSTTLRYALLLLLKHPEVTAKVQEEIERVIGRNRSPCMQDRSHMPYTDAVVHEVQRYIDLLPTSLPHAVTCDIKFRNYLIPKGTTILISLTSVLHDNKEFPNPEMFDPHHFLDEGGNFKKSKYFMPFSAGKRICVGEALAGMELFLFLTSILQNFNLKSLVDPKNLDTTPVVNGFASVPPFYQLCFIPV
# [11] = 4-week toxicity study with 4-week recovery in mice; settings: 25 mg base/kg/dose QOD×3 weekly, males
# LU2514 SCLC PDX = type: in vivo
# Protocol: Tumor growth inhibition analysis was performed on Day 28 post treatment, the last day of dosing.
# [12] = Hemodynamic and ECG parameters in anesthetized guinea pigs; type: in vivo, male Dunkin Hartley guinea pigs
# Source text: Animals were monitored throughout the experiment.
# LXFS 573 SCLC PDX [13] = assay: Efficacy in LXFS 573 SCLC PDX model; type: in vivo, female immunodeficient NMRI-Foxn1nu mice; settings: 5, 7.5, 10 mg/kg oral
# NCI-H1417 SCLC xenograft = assay: Efficacy in NCI-H1417 SCLC xenograft model; type: in vivo, female athymic nude mice
# CYP2D6 = CYP2D6 (Homo sapiens (Human), UniProt P10635); assay: CYP inhibition in pooled human liver microsomes, CYP2D6; type: in vitro ADME; settings: up to 50 μM
# Sequence of CYP2D6 (P10635 whole entry): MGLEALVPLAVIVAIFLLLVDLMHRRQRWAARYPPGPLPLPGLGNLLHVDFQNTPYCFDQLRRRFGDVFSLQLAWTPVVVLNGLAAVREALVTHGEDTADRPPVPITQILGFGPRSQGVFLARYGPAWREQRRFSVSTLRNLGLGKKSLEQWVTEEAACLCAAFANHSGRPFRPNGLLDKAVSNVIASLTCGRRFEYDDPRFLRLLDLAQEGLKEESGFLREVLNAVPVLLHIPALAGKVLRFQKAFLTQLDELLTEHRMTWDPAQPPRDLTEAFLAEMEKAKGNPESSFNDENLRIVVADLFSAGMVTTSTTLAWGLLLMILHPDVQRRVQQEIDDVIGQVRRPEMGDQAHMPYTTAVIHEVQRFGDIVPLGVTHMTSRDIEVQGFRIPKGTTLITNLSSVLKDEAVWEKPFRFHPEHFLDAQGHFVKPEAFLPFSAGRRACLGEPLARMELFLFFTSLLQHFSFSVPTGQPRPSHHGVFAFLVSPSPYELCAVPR
# [14] = Metabolism in cryopreserved primary hepatocytes; type: in vitro ADME; settings: hepatocytes of mouse, rat, dog, monkey, human
# [15] = Exploratory toxicity study in dogs; type: in vivo, Beagle dogs
# LXFS 615 SCLC PDX = assay: Efficacy in LXFS 615 SCLC PDX model; type: in vivo, female immunodeficient NMRI-Foxn1nu mice; settings: 5 mg base/kg oral for 30 days
# [16] = Pharmacokinetics following IV and oral administration, rats; type: in vivo, Sprague Dawley rats; settings: IV dosing
# LXFS 1129 SCLC PDX = assay: Efficacy in LXFS 1129 SCLC PDX model; type: in vivo, female immunodeficient NMRI-Foxn1nu mice; settings: 1.5 and 5 mg base/kg QD for 30 days
# LXFS 573 SCLC PDX [17] = system: LXFS 573 SCLC PDX
# human LSD-1 = human LSD-1 (Homo sapiens (Human), UniProt O60341); assay: In vitro enzyme inhibition assay LSD-1 (TR-FRET); type: biochemical; settings: H3K4me1-biotin labeled peptide
# Source text: This assay determines the ability of a test compound to inhibit LSD-1 demethylase activity.
# The enzymatic assay of LSD-1 activity is based on Time Resolved-Fluorescence Resonance Energy Transfer (TR-FRET) detection.
# [18] = CD-1, Sprague Dawley, mouse, rat, rodents
# [19] = after escalating IV doses up to 20 mg base/kg
# [20] = Etoposide at 24 mg/kg/day SC days 1-3 + Vehicle
# [21] = etoposide monotherapy 24 mg/kg SC
smiles,measurement,setting,value
"COc1ccc(-c2c(-c3ccc(C#N)c(F)c3)nc(N3CCC(N)CC3)n(C)c2=O)cc1F [Compound A, 4-[2-(4-amino-piperidin-1-yl)-5-(3-fluoro-4-methoxy-phenyl)-1-methyl-6-oxo-1,6-dihydro-pyrimidin-4-yl]-2-fluoro-benzonitrile]",increase in platelets on Day 8 compared with the end of the first dosing period,[1]; 10 mg/kg/day 5 days on/2 days off,> 2 fold
same,reduction in neutrophil counts vs concurrent controls,[1]; females,66%
same,reduction in neutrophil counts vs concurrent controls,[1]; males,83%
same,greatest reduction in neutrophil counts vs concurrent controls and pre-study values,[1]; 5 days on/2 days off schedule,approximately 90%
same,circulating platelets,"[1]; all dose levels, end of the study",reduced
same,accumulation upon repeat dosing,[1]; mice,no accumulation
same,Median Tumor Volumes Diff,MS-1 hMCC xenograft,80 mm^3
same,Median Tumor Volumes Day 15,MKL-1 hMCC xenograft,880 mm^3
same,half-life,"[2]; Beagle, Cynomolgus, dog, monkey, non-rodents",12 to 20 h
same,bioavailability,"[2]; Beagle, dog, cynomolgus monkey, dogs and monkeys",82 to 100%
same,Tmax,"[2]; CD-1, Sprague Dawley, Beagle, mouse, rat, dog, cynomolgus monkey, oral dosing, mice, rats, dogs, and monkeys, read-out: median time to peak plasma concentration (tmax)",0.5 to 6 h
same,half-life,[2]; [18],2 to 4 h
same,bioavailability,[2]; [18],28 to 74%
same,mutagenicity,[3],negative
same,Papp,"P-gp (human MDR1); MDCK-MDR1, A→B direction",0.5 ×10⁻⁶ cm/s
same,Papp,"P-gp (human MDR1); MDCK-MDR1, B→A direction",16.5 ×10⁻⁶ cm/s
same,P-gp substrate status,[4],P-gp substrate
same,NOAEL,[5],< 0.5 mg base/kg/dose
same,cause of moribund condition,[6]; 0.375 to 1.5 mg base/kg weekly,gastric mucosal ulceration and/or acute inflammation
same,accumulation after multiple dosing,"[6]; dog, in vivo",No accumulation
same,platelet count,"[6]; dog, in vivo",mildly to markedly decreased
same,AUC0-168,"[6]; female, Beagle, dog, in vivo, po",435 ng·h/mL
same,Cmax,"[6]; male, Beagle, dog, in vivo, po",17.2 ng/mL
same,HNSTD and NOAEL for the QW or BIW dose schedule,[6]; not determined,< 0.375 mg base/kg/dose
same,moribund euthanasia,"[6]; weekly oral, 1 male 0.375 QW, 2 males and 1 female 0.75, 3 males and 4 females 1.5 mg base/kg/dose, Days 13 to 23",11 animals
same,AUClast,[7],2007 ng·h/mL
same,CYP enzyme responsible for oxidative metabolism,[8],CYP3A4 appears to be predominantly responsible
same,accumulation after multiple doses,[9],No accumulation
same,AUC0-96,"[9]; female, Beagle, po, 0.25 mg/kg",343 ng·h/mL
same,Cmax,"[9]; female, Beagle, po, 0.25 mg/kg",12.1 ng/mL
same,AUC0-96,"[9]; female, Beagle, po, 0.5 mg/kg",729 ng·h/mL
same,dose excreted intact (urine and bile),[10],26.3 % of the dose
same,dose excreted intact in urine,[10],8.5 % of dose
same,direct inhibitory effect,CYP2C9,little to no direct inhibitory effect
same,mean steady state AUC0-24,[11],"17,800 ng·hr/mL"
same,tolerability,LU2514 SCLC PDX; both LU2514 studies,well tolerated
same,mean body weight losses,"LU2514 SCLC PDX; mouse, in vivo",< 10%
same,maximum increase of QTcB interval vs time-matched vehicle,[12]; 10 mg base/kg IV,approximately 9%
same,maximum increase of QTcB interval vs time-matched vehicle,[12]; 15 mg base/kg IV,~13%
same,maximum increase of QTcB interval vs time-matched vehicle,[12]; 20 mg base/kg IV,~16%
same,"decrease in HR, maximum suppression as compared with vehicle","[12]; 20 mg base/kg IV, 9 minutes into the 10-minute infusion",19%
same,effect in MAP or its components,[12]; 5-20 mg base/kg IV vs time-matched vehicle,No notable effect
same,NOAEL for hemodynamic and ECG endpoints,[12]; IV administration,10 mg base/kg
same,QTcB interval increase at the end of the monitoring period,[12]; [19],10%
same,heart rate decrease at the end of the monitoring period,[12]; [19],18%
same,mean body weight losses,LXFS 573 SCLC PDX [13],≤ 3%
same,mean body weight gain by the end of study,NCI-H1417 SCLC xenograft; 2.5 mg base/kg PO QDx65,1%
same,mean body weight gain by the end of study,NCI-H1417 SCLC xenograft; 5 mg base/kg PO QDx65,7.5%
same,tumors from treated animals regressed in net volume,"NCI-H1417 SCLC xenograft; 2.5 and 5 mg base/kg groups together, end of study",14 out of 15
same,tolerability,NCI-H1417 SCLC xenograft; 2.5 or 5 mg base/kg PO QDx65,well tolerated
same,direct inhibitory effect,CYP2D6,little to no direct inhibitory effect
same,metabolic stability,[14],greater in rat and dog followed by human and monkeys while being least stable in mouse hepatocytes
same,treatment-related effects,[15]; 0.25 mg/kg/dose QOD,generally no Compound A-related effects
same,accumulation after repeat dosing,[15]; QOD schedule,no accumulation
same,mean body weight losses,LXFS 615 SCLC PDX,< 1%
same,systemic clearance,[16],greater than liver blood flow
same,mean body weight losses,LXFS 1129 SCLC PDX,< 6%
"COc1cc([C@@H]2c3cc4c(cc3[C@@H](O[C@@H]3O[C@@H]5CO[C@@H](C)O[C@H]5[C@H](O)[C@H]3O)[C@H]3COC(=O)[C@H]23)OCO4)cc(OC)c1O [Etoposide, etoposide, reference compound]",% TGD,LXFS 573 SCLC PDX [17]; [20],50%
same,T-C,LXFS 573 SCLC PDX [17]; [20],21 days
same,median TTE,LXFS 573 SCLC PDX [17]; [20],63 days
same,SS number of study survivors,"LXFS 573 SCLC PDX [17]; Etoposide at 24 mg/kg/day SC days 1-3 + Vehicle, Day 133, N=8",0 (na)
same,% TGD,LXFS 573 SCLC PDX [17]; [21],50%
same,TGD,LXFS 573 SCLC PDX [17]; [21],21 days
same,median TTE,LXFS 573 SCLC PDX [17]; [21],63 days
"CCn1c(N2CCC(N)CC2)nc(-c2ccc(C#N)c(F)c2)cc1=O [Example 13, 4-[2-(4-amino-piperidin-1-yl)-1-ethyl-6-oxo-1,6-dihydro-pyrimidin-4-yl]-2-fluoro-benzonitrile]",IC50,human LSD-1,100 to 1000 nM
"N#Cc1ccc(-c2cc(=O)n(CCCO)c(N3CCC(N)CC3)n2)cc1F [Example 17, 4-[2-(4-amino-piperidin-1-yl)-1-(3-hydroxy-propyl)-6-oxo-1,6-dihydro-pyrimidin-4-yl]-2-fluoro-benzonitrile]",IC50,human LSD-1,100 to 1000 nM
"Cn1c(N2CCC(N)CC2)nc(-c2ccc(C#N)c(F)c2)c(-c2ccc(C(=O)O)cc2)c1=O [Example 39, 4-[2-(4-aminopiperidyl)-6-(4-cyano-3-fluorophenyl)-3-methyl-4-oxo-3-hydropyrimidin-5-yl] benzoic acid]",IC50,human LSD-1,100 to 1000 nM
"N#Cc1ccc(-c2cc(=O)n(CC3CC3)c(N3CCC(N)CC3)n2)cc1F [Example 109, 4-[2-(4-amino-piperidin-1-yl)-1-cyclopropylmethyl-6-oxo-1,6-dihydro-pyrimidin-4-yl]-2-fluoro-benzonitrile]",IC50,human LSD-1,100 to 1000 nM
"Cn1c(N2CCC(N)CC2)nc(-c2ccncc2)c(-c2ccc3c(ccn3C)c2)c1=O [Example 116, 2-(4-amino-piperidin-1-yl)-3-methyl-5-(1-methyl-1H-indol-5-yl)-6-pyridin-4-yl-3H-pyrimidin-4-one]",IC50,human LSD-1,100 to 1000 nM

# From US10543213B2, “Treatment of relapsed and/or refractory solid tumors and non-hodgkin's lymphomas” (Celgene Quanticel Research, Inc., priority 2016, dated 2020)
